Read-outs that look alike come from different tables or passages of the source.
Assay: Plasma pharmacokinetics of Compound 2 in PD participants (LC-MS/MS)
Format: in vivo, human
Settings: plasma, plasma; for AUC(0-t) / Cmax / Tmax: human, po, 15 mg; for Tmax: read-out: tmax, median
Method: Participants were randomised to 3 doses of once-daily orally administered Compound 2 or placebo, in sequential cohort design, and were followed up to 36 weeks (52 weeks for Japanese participants). Participants in the low-dose group received 4 mg of Compound 2 as a once daily oral dose; participants in the mid-dose group received 8 mg of Compound 2 a once daily oral dose; and participants in the high-dose group received 15 mg of Compound 2 a once daily oral dose.
Analyses were based on all available data from participants who enrolled in part 1 of the trial and were randomised to receive either Compound 2 or placebo for up to 52 weeks for Japanese participants and 36 weeks for the ROW population. As part 1 was an exploratory, dose-escalation study, the sample size was not based on a statistical power calculation. Participants included in the primary safety analyses were those who were randomized and received at least one dose of Compound 2 or placebo. A data monitoring committee was responsible for overseeing the safety of patients and the risk/benefit ratio throughout the study. Duration of exposure to Compound 2 was different among the doses, as per the sequential cohort design, with the low- and high-dose cohorts commencing the study first and last, respectively. For pharmacokinetics, plasma parameters were calculated using noncompartmental methods, from plasma Compound 2 concentrations obtained after single dose administration. AUC0-24 and AUC0-48 were calculated using the trapezoidal method over a predefined time period of 24 hours or 48 hours, respectively. CLss/F was calculated using the following equation: CLss/F=Dose/AUCτ, where τ is the dosing interval. For pharmacodynamics, percent reduction of plasma or CSF GL-1 from baseline was calculated as (value−baseline)/baseline×100. Formal statistical testing was not conducted on MDS-UPDRS scale assessments.
The secondary outcome was to evaluate the pharmacokinetic profile of Compound 2 in plasma and cerebrospinal fluid (CSF) over a 4-week period. Plasma pharmacokinetic parameters included maximum plasma concentration (Cmax), time to Cmax (tmax), and area under the plasma concentration versus time curve from 0 to 24 h (AUC0-24). All parameters were assessed at Week 0 and Week 4 after treatment. In addition, AUC0-48 was assessed at Week 0, trough plasma concentration observed just before treatment administration during repeated dosing (Ctrough) was assessed at Weeks 2, 4, and 8 (FIG. 3), and total systemic clearance from plasma at steady state (CLSS/F) was assessed at Week 4. Plasma samples were collected at 1 hour pre-dose and 1, 2, 4, 8, 24, and 48 hours postdose. Compound 2 concentration in plasma was determined using a liquid chromatography tandem mass spectrometry method with a lower limit of quantification of 0.500 ng/mL. CSF samples were collected by lumbar puncture during the screening period (within 14 days prior to randomisation) or on the day of randomisation, and at Week 4, within 2 to 4 hours postdose. Compound 2 concentration in CSF was determined using a liquid chromatography tandem mass spectrometry method with a lower limit of quantification of 0.100 ng/mL.

[1] = Day 1, Japan, High 15 mg oral, n = 3
[2] = Week 4, ROW, High 15 mg once daily oral, n = 4
[3] = Week 4, Japan, High 15 mg once daily oral, n = 2
[4] = Week 4, Japan, High 15 mg vs Low 4 mg
[5] = Week 4, Japan, Low 4 mg once daily oral, n = 1
[6] = Week 4, Japan, Mid 8 mg once daily oral, n = 3
[7] = Week 4, Japan, Mid 8 mg vs Low 4 mg
[8] = Week 4, ROW, High 15 mg vs Low 4 mg
[9] = Week 4, ROW, Low 4 mg once daily oral, n = 4
[10] = Week 4, ROW, Mid 8 mg once daily oral, n = 5
[11] = Week 4, ROW, Mid 8 mg vs Low 4 mg

CC(C)(NC(=O)O[C@@H]1CN2CCC1CC2)c1csc(-c2ccc(F)cc2)n1 [Compound 2, (S)-quinuclidin-3-yl (2-(2-(4-fluorophenyl)thiazol-4-yl)propan-2-yl)carbamate]
AUC(0-t) (Day 1, Japan, High 15 mg oral, n = 3, read-out: AUC0-24, Geometric mean): 977 ng·h/mL
AUC(0-t) (Day 1, Japan, High 15 mg oral, n = 3, read-out: AUC0-24, mean): 990 ng·h/mL
AUC(0-t) (Day 1, Japan, High 15 mg oral, n = 3, read-out: AUC0-48, Geometric mean): 1570 ng·h/mL
AUC(0-t) (Day 1, Japan, High 15 mg oral, n = 3, read-out: AUC0-48, mean): 1590 ng·h/mL
Cmax (Day 1, Japan, High 15 mg oral, n = 3, read-out: Cmax, mean): 54.1 ng/mL
Tmax [1]: 4.1 h
AUC(0-t) (Day 1, ROW, High 15 mg oral, n = 4, read-out: AUC0-24, Geometric mean): 868 ng·h/mL
AUC(0-t) (Day 1, ROW, High 15 mg oral, n = 4, read-out: AUC0-24, mean): 873 ng·h/mL
AUC(0-t) (Day 1, ROW, High 15 mg oral, n = 4, read-out: AUC0-48, Geometric mean): 1440 ng·h/mL
AUC(0-t) (Day 1, ROW, High 15 mg oral, n = 4, read-out: AUC0-48, mean): 1450 ng·h/mL
Cmax (Day 1, ROW, High 15 mg oral, n = 4, read-out: Cmax, Geometric mean): 47.1 ng/mL
Cmax (Day 1, ROW, High 15 mg oral, n = 4, read-out: Cmax, mean): 47.4 ng/mL
Tmax (Day 1, ROW, High 15 mg oral, n = 4): 3.94 h
AUC(0-t) (Week 4, Japan, High 15 mg once daily oral, n = 2, read-out: AUC0-24, Geometric mean): 3140 ng·h/mL
AUC(0-t) (Week 4, Japan, High 15 mg once daily oral, n = 2, read-out: AUC0-24, mean): 3150 ng·h/mL
Cmax (Week 4, Japan, High 15 mg once daily oral, n = 3, read-out: Cmax, Geometric mean): 144 ng/mL
Cmax (Week 4, Japan, High 15 mg once daily oral, n = 3, read-out: Cmax, mean): 145 ng/mL
Tmax (Week 4, Japan, High 15 mg once daily oral, n = 3): 2.1 h
AUC(0-t) (Week 4, ROW, High 15 mg once daily oral, n = 4, read-out: AUC0-24, Geometric mean): 2490 ng·h/mL
AUC(0-t) (Week 4, ROW, High 15 mg once daily oral, n = 4, read-out: AUC0-24, mean): 2510 ng·h/mL
Cmax (Week 4, ROW, High 15 mg once daily oral, n = 4, read-out: Cmax, Geometric mean): 135 ng/mL
Cmax (Week 4, ROW, High 15 mg once daily oral, n = 4, read-out: Cmax, mean): 136 ng/mL
Tmax [2]: 2.89 h
Cmax, Geometric mean [1]: 53.3 ng/mL
CLss/F, Geometric mean [3]: 4770 mL/h
CLss/F, mean [3]: 4780 mL/h
AUC0-24, Fold increase vs low dose [4]: 2.78 fold
CLss/F, Fold increase vs low dose [4]: 1.35 fold
Cmax (geometric mean), Fold increase vs low-dose [4]: 2.56 fold
CLss/F, Geometric mean [5]: 3540 mL/h
CLss/F, mean [5]: 3540 mL/h
CLss/F, Geometric mean [6]: 4930 mL/h
CLss/F, mean [6]: 5010 mL/h
Cmax, mean [6]: 83.7 ng/mL
AUC0-24, Fold increase vs low dose [7]: 1.43 fold
CLss/F, Fold increase vs low dose [7]: 1.39 fold
Cmax (geometric mean), Fold increase vs low-dose [7]: 1.47 fold
CLss/F, Geometric mean [2]: 6030 mL/h
CLss/F, mean [2]: 6100 mL/h
AUC0-24, Fold increase vs low dose [8]: 3.26 fold
CLss/F, Fold increase vs low dose [8]: 1.15 fold
Cmax (geometric mean), Fold increase vs low-dose [8]: 3.29 fold
CLss/F, Geometric mean [9]: 5240 mL/h
CLss/F, mean [9]: 5270 mL/h
CLss/F, Geometric mean [10]: 5370 mL/h
CLss/F, mean [10]: 5450 mL/h
AUC0-24, Fold increase vs low dose [11]: 1.95 fold
CLss/F, Fold increase vs low dose [11]: 1.02 fold
Cmax (geometric mean), Fold increase vs low-dose [11]: 1.85 fold
Ctrough versus dose (Weeks 2, 4, and 8 (FIG. 3)): increased in a dose-proportional manner

— patent US20230372313A1, “METHODS FOR REDUCING GLYCOSPHINGOLIPID CONCENTRATION IN BRAIN TISSUE AND METHODS OF TREATMENT OF NEURODEGENERATIVE DISEASES INVOLVING THE SAME” (GENZYME CORPORATION, priority 2020, published 2023)
